Experimental data reported in ChEMBL document CHEMBL4842343, “1,10-Seco-Eudesmane sesquiterpenoids as a new type of anti-neuroinflammatory agents by suppressing TLR4/NF-κB/MAPK pathways” (Eur J Med Chem, 2021).
The source made the active and inactive calls. No cut-off for these calls is given here.

Key:
BV-2 [1] = experiment: Antineuroinflammatory activity in LPS- stimulated mouse BV-2 cells assessed as fold increase in HO-1 expression at 10 uM measured after 24 hrs by immunoblotting analysis relative to control; format: functional
[2] = Inhibition of LPS-induced NO production in mouse BV-2 cells incubated for 24 hrs by Griess reagent based assay; format: functional, cell-based; details: Mus musculus, BV-2, 24 h; read-out: EC50
BV-2 [3] = experiment: Inhibition of TLR4/NF-kappaB signalling pathway in LPS- stimulated mouse BV-2 cells assessed as reduction in IRAK1 expression measured after 24 hrs by western blot analysis; format: cell-based; details: dose 0.3-10 µM
BV-2 [4] = experiment: Inhibition of COX-2 expression in mouse BV-2 cells at 10 uM measured after 24 hrs by western blot analysis; format: functional, cell-based
[5] = Potency indes, ratio of OABC to test compound for Inhibition of iNOS expression in LPS-stimulated mouse BV-2 cells at 10 uM measured after 24 hrs by western blot analysis; format: functional
BV-2 [6] = experiment: Inhibition of PGE2 production in LPS- stimulated mouse BV-2 cells measured after 24 hrs by ELISA; format: functional, cell-based; details: dose 1-10 µM
BV-2 [7] = experiment: Inhibition of PGE2 production in mouse BV-2 cells at 10 uM measured after 24 hrs by ELISA; format: functional, cell-based
[8] = Inhibition of iNOS expression in LPS-stimulated mouse BV-2 cells at 10 uM measured after 24 hrs by western blot analysis relative to control; format: functional
BV-2 [9] = experiment: Potency indes, ratio of OABC to test compound for inhibition of COX-2 expression in LPS-stimulated mouse BV-2 cells at 10 uM measured after 24 hrs by western blot analysis; format: functional
BV-2 [10] = experiment: Antineuroinflammatory activity in LPS- stimulated mouse BV-2 cells assessed as conversion of microglia from M1 to M2 phenotype macrophages by measuring IL-10 production at 1 uM measured after 24 hrs by ELISA; format: functional, cell-based
BV-2 [11] = experiment: Inhibition of COX-1 expression in mouse BV-2 cells at 10 uM measured after 24 hrs by western blot analysis; format: functional, cell-based
BV-2 [12] = experiment: Inhibition of TLR4/NF-kappaB signalling pathway in LPS-stimulated mouse BV-2 cells assessed as decrease in CD14 cell surface expression at 10 uM pretreated for 1 hr followed by LPS stimulation and measured after 24 hrs by […] (reference value: 27.2%); format: cell-based; set-up: scale not given: the % may be the effect or the level left; details: time 25.0 hrs
BV-2 [13] = experiment: Inhibition of TLR4/NF-kappaB signalling pathway in mouse BV-2 cells assessed as increase in CD14 cell surface expression at 10 uM pretreated for 1 hr and measured after 24 hrs by flow cytometry analysis (Rvb= 3.8%); format: cell-based; set-up: scale not given: the % may be the effect or the level left; details: time 25.0 hrs
[14] = Inhibition of iNOS expression in mouse BV-2 cells at 10 uM measured after 24 hrs by western blot analysis relative to control; format: functional
BV-2 [15] = experiment: Inhibition of COX-2 expression in LPS-stimulated mouse BV-2 cells measured after 24 hrs by western blot analysis; format: functional, cell-based
BV-2 [16] = experiment: Inhibition of COX-1 expression in LPS-stimulated mouse BV-2 cells at 1 to 10 uM measured after 24 hrs by western blot analysis; format: functional, cell-based; details: dose 1-10 µM
BV-2 [17] = experiment: Inhibition of ERK phosphorylation in LPS-stimulated mouse BV-2 cells at 0.3 to 10 uM measured after 2 hrs by western blot analysis; format: cell-based; details: dose 0.3-10 µM
BV-2 [18] = experiment: Inhibition of TNF-alpha production in LPS stimulated mouse BV-2 cells measured after 24 hrs by ELISA; format: functional, cell-based; details: dose 1-10 µM
BV-2 [19] = experiment: Inhibition of NF-kappaB p65 translocation in LPS-stimulated mouse BV-2 cells assessed as distribution of NF-kappaB p65 in nucleus and cytoplasm at 3 uM pretreated for 1 hr followed by LPS stimulation measured after 24 hrs by DAPI staining based immunofluorescence assay; format: cell-based; details: time 25.0 hrs
[20] = Potency index, ratio of OABC EC50 to test compound EC50 for inhibition of LPS-induced NO production in mouse BV-2 cells incubated for 24 hrs by Griess reagent based assay; format: functional
[21] = biological target: MAP kinase p38 (Mus musculus) (UniProt P47811+O08911+Q9WUI1+Q9Z1B7); experiment: Inhibition of p38 MAPK phosphorylation in LPS-stimulated mouse BV-2 cells measured after 2 hrs by western blot analysis; format: cell-based; details: dose 0.3-10 µM
BV-2 [22] = experiment: Inhibition of iNOS expression in LPS-stimulated mouse BV-2 cells measured after 24 hrs by western blot analysis; format: functional, cell-based; details: dose 1-10 µM
BV-2 [23] = experiment: Antineuroinflammatory activity in LPS- stimulated mouse BV-2 cells assessed as upregulation of HO-1 expression measured after 24 hrs by immunoblotting analysis; format: functional, cell-based; details: dose 1-10 µM
BV-2 [24] = experiment: Cytotoxicity against LPS-stimulated mouse BV-2 cells assessed as reduction in cell viability at 10 uM measured after 24 hrs by MTT assay relative to control; format: cell-based; details: bv-2, 24 h
BV-2 [25] = experiment: Inhibition of TLR4/NF-kappaB signalling pathway in LPS- stimulated mouse BV-2 cells assessed as reduction in MyD88 expression at 0.3 to 10 uM measured after 24 hrs by western blot analysis; format: cell-based; details: dose 0.3-10 µM
[26] = Effective permeability of the compound in PBS/EtOH buffer (9:1) at […] after 10 hrs by HPLC-UV based PAMPA-BBB assay; format: ADME; details: read-out: permeability
BV-2 [27] = experiment: Antineuroinflammatory activity in LPS- stimulated mouse BV-2 cells assessed as conversion of microglia from M1 to M2 phenotype macrophages by measuring arginase-1 level at 10 uM measured after 24 hrs by ELISA; format: functional, cell-based
BV-2 [28] = experiment: Inhibition of TNF-alpha production in mouse BV-2 cells at 10 uM measured after 24 hrs by ELISA; format: functional, cell-based

C=C1C(=O)O[C@@H]2CC(CBr)=C([C@@H](C)CCCOC(C)=O)[C@@H](OC(C)=O)[C@H]12
fold change (FC) (BV-2 [1]): 2.8
EC50 [2]: 700 nM
inhibition (BV-2 [3]): Dose-Dependent Effect
inhibition (BV-2 [4]): Active
fold change (FC) [5]: 4
inhibition (BV-2 [6]): Dose-Dependent Effect
inhibition (BV-2 [7]): inactive
inhibition at 10 µM [8]: 11.2%
fold change (FC) (BV-2 [9]): 4
Activity (BV-2 [10]): Active
inhibition (BV-2 [11]): inactive
Activity (BV-2 [12]): 9.9%
Activity (BV-2 [13]): 10.6%
inhibition at 10 µM [14]: 12.2%
inhibition (BV-2 [15]): Dose-Dependent Effect
inhibition (BV-2 [16]): inactive
inhibition (BV-2 [17]): inactive
inhibition (BV-2 [18]): Dose-Dependent Effect
inhibition (BV-2 [19]): Active
Ratio EC50 [20]: 6
Activity [21]: Dose-Dependent Effect
inhibition (BV-2 [22]): Dose-Dependent Effect
Activity (BV-2 [23]): Dose-Dependent Effect
Activity (BV-2 [24]): 90.6%
inhibition (BV-2 [25]): inactive
Papp at 10 h [26]: 6.5 ×10⁻⁶ cm/s
Activity (BV-2 [27]): Active
inhibition (BV-2 [28]): inactive
